Tests used:
[1] = system: micromycete contaminants commonly found in foodstuffs; assay: Antifungal activity against micromycete contaminants of foodstuffs (25 species); assay type: cell-based; design: Strains whose growth was inhibited or diminished: concentration or dose not given beside the values; conditions: 25 species of fungi
Method: (§1) It is known that a number of caffeic acid derivatives inhibit the growth of bacteria and fungi. This property has been confirmed for oraposide with 40 different strains belonging to 10 genera of bacteria, and 25 different strains belonging to 25 species of fungi.
Antifungal activity was tested in relation to micromycete contaminants commonly found in foodstuffs. The test was performed with 25 species belonging to the Adelomycetes (e.g. Alternaria tenuis, Fusarium avenceum, Geotricom candidum, etc.), Mucorales (e.g. Mucor mucedo, Cunninghamella elegans, Rhizopus nigricans, etc.), Endomycetes (e.g. Candida lipolytica, Saccharomyces cerevisiae, etc.), Plectomycetes (e.g. Aspergillus clavatus, A. niger, Penicillium chrysogenum, P. rubturm, etc.), and Pyrenomycetes (e.g. Chaetomium globosum, Sordaria himicola, etc.).

[2] = biological target: T1, A.R. - Rat lens (Rattus norvegicus, UniProt P07943); assay: Inhibition of aldose reductase, rat lens; assay type: biochemical
T1 construct: crude enzyme extract isolated from lenses freshly obtained from bovines and rats; from tissue; host or cells: rat lens, crude enzyme extract
Method: (§2) Enzyme inhibition was evaluated in vitro using a crude enzyme extract isolated from lenses freshly obtained from bovines and rats. The principle of the reaction is as follows: [drawing 3]
(§3) This reaction takes place at PH=6.2 at ambient temperature and extinctions were measured at 340 nm. The molecules tested were dissolved in twice-distilled water.

[3] = biological target: T2, A.R. calf lens (Bos taurus, UniProt P16116); assay: Inhibition of aldose reductase, calf lens; assay type: biochemical, bovine (calf)
T2 construct: crude enzyme extract isolated from lenses freshly obtained from bovines and rats; from tissue; host or cells: calf (bovine) lens, crude enzyme extract
Method: as §2, §3
The aldose reductase inhibiting activity of the various heteroside caffeic esters (1) and (2) correspond to two different series of experiments.

[4] = system: human keratinocytes; assay: Cytotoxicity in keratinocyte culture (LDH release); conditions: for cytotoxicity (in words) / % increase in OD with respect to the control (+DMSO), D1 / % increase in OD with respect to the control (+DMSO), D2 / % increase in OD with respect to the control (+DMSO), D3: 200 μM; for cytotoxicity (in words): LDH release; for % increase in OD with respect to the control (+DMSO), D1: day 1, mean of 3 measurements; for % increase in OD with respect to the control (+DMSO), D2: day 2, mean of 3 measurements; for % increase in OD with respect to the control (+DMSO), D3: day 3, mean of 3 measurements
Method: Culture medium: DMEM (1/2), HAM F12 (1/2) basic medium (from the Gibco company), with added 5% foetal calf serum (from the Intermed company).
Cultures were prepared in 60 mm petri dishes (NUNC), seeding density: 5000 cells per cm^2.
The compounds were tested in solution in DMSO at 200 μM, the control cultures containing an identical amount of solvent.
The amount of LDH released into the culture medium after daily treatment with anti-free-radical molecules was determined after 24 hours and then for 6 days.
The supernatant from the culture was contacted with sodium pyruvate and NADH, and the kinetics of LDH activity were measured spectrophotometrically (Boehringer kit).

[5] = system: human keratinocytes; assay: Anti-free-radical activity in keratinocyte cultures (MDA production); assay type: cell-based; conditions: for inhibition at 100 µM: Homo sapiens, Keratinocyte, 2 h, 2 hours incubation, mean of 3 measurements
Method: The anti-free-radical activity of oraposide was investigated on a line of human keratinocytes in culture, in comparison with well known anti-free-radical agents.
The protective activity of the anti-free-radical agent was evaluated by measuring malonaldehyde (MDA) in the culture medium (reflecting the lipoperoxidation of cell membrane lipids) after the cells had been brought into contact with a source of oxygenated free radicals (after the method of Z. A. Placer et al., 1966, Anal. Biochem. 16, 359-64, reference cited above).
Cells: human keratinocytes from a squamous carcinoma.
One week after seeding the merged single layer of cells was processed with […] of a solution containing an oxygenated radical generator consisting of vitamin C 10^-3 M, FeCl3 10^-4 M, FeSO4 10^-4 M in pH 8 PBS buffer to which the molecule being tested was added (=reaction medium).
After incubation at 37° C. for 2 hours this incubation medium was recovered for the determination of MDA.
After 2 hours incubation with the cells the 500 μl of reaction medium was sampled and thiobarbituric acid was added in order to determine MDA at 532 nm.
The results are stated as % inhibition of MDA production.
The investigation was performed at a concentration of 100 μM for the 3 materials after 2 hours incubation with the reaction mixture. The MDA produced, determined by spectrophotometry, provided results which are expressed as % inhibition of this production in comparison with the controls (reaction medium alone).

[6] = system: Staphylococcus aureus; assay: Antibacterial effect, 29 strains of Staphylococcus aureus; assay type: cell-based
[7] = biological target: aldose reductase; assay: Inhibition of aldose reductase, comparison in the conclusion (species not given); assay type: biochemical; conditions: value given in conclusion, species not specified; read-out: IC 50 (conclusion)
Description: The four molecules inhibit aldose reductase from both cattle and rats.

[8] = UV absorption of oraposide compared with sunscreen filters (integration of UVB and UVA peak surface areas); assay type: physicochemical
Description: Integration of the surface areas of the UVB peaks can be used to compare oraposide with Parsol MCX®, from which it can be seen that the UVB absorption activity of oraposide is 0.4 times that of Parsol MCX®. If the surface area of the UVA peak of oraposide is integrated and compared with Parsol 1 789®, it will be seen that the UVA absorption of oraposide is approximately 0.2 times that of Parsol 1 789®.

[9] = system: bacterial strains; assay: Antibacterial effect, 40 strains belonging to 10 genera of bacteria; assay type: cell-based; conditions: doses of 0.5 mg/ml and above
Description: as §1
The bacterial strains tested were: Staphylococcus aureus, Streptococcus (group A and group D), Escherichia coli, Klebsiella pneumoniae, Proteus sp., Providentia sp., Serratia marcescens, Enterobacter cloacae, Pseudomonas aeruginosa, Salmonella (S. typhi and S. para-typhi).

[10] = system: rabbit hepatocytes; assay: LDH release by hepatocytes in primary culture intoxicated with chloroform; assay type: cell-based; conditions: oraposide 5.10^-5 M; chloroform 10^-4 M; 3, 7 and 24 hours (FIG. 2)
Description: As in FIG. 1, reference 1 indicates the results obtained with untreated cultures, reference 2 the results obtained with cultures treated with 10^-4 M chloroform, and reference 3 the results obtained with cultures treated with a combination of 10^-4 M chloroform and oraposide in a concentration of 5.10^-5 M. Chloroform is also a hepatotoxic agent.
(§4) The experimental model selected was investigation of the release of lactate dehydrogenase (LDH) by rabbit hepatocytes in primary culture, this LDH release representing a marker of hepatocyte deterioration.
(§5) The hepatocytes were deliberately intoxicated with nitroxynil (10^-4 to 10^-5 M) or chloroform (10^-3 to 10^-5 M) .
(§6) The effect of oraposide was evaluated for a final concentration of 0.05 mM in the culture medium.

[11] = system: rabbit hepatocytes; assay: Cell toxicity of oraposide itself on hepatocytes; assay type: cell-based; conditions: even at a concentration of 100 μM
Description: as §4

[12] = system: Parkinson's disease; assay: Effect in Parkinson's disease on abnormal movements and secondary disturbances due to treatment with L-dopa; assay type: in vivo; conditions: associated with L-dopa
Description: (§7) In accordance with a particular embodiment of the invention within the context of antitremor treatment, in particular in Parkinson's disease, the composition according to the aforesaid invention also contains a therapeutically effective amount of L-dopa. In fat oraposide and its derivatives of formula I aforesaid have a potentiating activity for L-dopa in its antitremor activity, which is effective in particular in Parkinson's disease. Oraposide and its derivatives of formula I aforesaid associated with L-dopa in fact experimentally reduce tremor caused by a tremor-inducing factor in animals and in man. In Parkinson's disease an improvement in abnormal movements (of the choreic type) and other secondary disturbances due to treatment with L-dopa is found.

[13] = system: rabbit hepatocytes; assay: LDH release by hepatocytes in primary culture intoxicated with nitroxynil; assay type: cell-based; conditions: oraposide 5.10^-5 M (0.05 mM); nitroxynil 10^-4 M; 3 and 7 hours (FIG. 1)
Description: Reference 1 in the two blocks of histograms indicates the results obtained with untreated cultures, acting as controls, reference 2 indicates histogram blocks obtained using cultures treated with nitroxynil at a concentration of 10^-4 M, reference 3 indicates histogram blocks obtained with cultures treated with nitroxynil in a concentration of 10^-4 M and verbascoside in a concentration of 5.10 ^-5 M, reference 4 indicates histogram blocks obtained with cultures treated with nitroxynil in a concentration of 10^-4 M and oraposide in a concentration of 5.10^-5 M, and reference 5 indicates histogram blocks obtained with cultures treated with nitroxynil in a concentration of 10^-4 M and arenarioside in a concentration of 5.10^-5 M. Nitroxynil is a hepatotoxic agent, verbascoside and arenarioside are other heteroside esters of caffeic acid which are known to those skilled in the art.
as §4, §5, §6

[14] = system: rabbit liver microsomes; assay: Lipoperoxidation inhibition in liver microsomes (malonyl dialdehyde formation); assay type: biochemical
Method: Verbascoside, oraposide and arenarioside are heteroside esters of caffeic acid and the acids cited are other esters of caffeic acid.
A lipoperoxidation reaction takes place when rabbit liver microsomes are incubated in the presence of NADPH.
The microsomes were recovered from the processing of hepatocytes with ultrasound.
Lipoperoxidation was evaluated through the formation of malonyl dialdehyde in accordance with the method by Placer et al., 1966 (Analyt. Biochem. 16,359-364).
The reaction was performed in the absence of (control) and in the presence of caffeic acid or oraposide in a concentration of 5.10^-5 M or in the presence of α-tocopherol (Sigma) at 5.10^-5 M (known inhibiting activity reference).

[15] = system: tremor caused by a tremor-inducing factor; assay: Antitremor activity in association with L-dopa against a tremor-inducing factor, in animals and in man; assay type: in vivo; conditions: associated with L-dopa
Description: as §7

[16] = 5.10^-5 M, microsomes with NADPH (FIG. 3)

## O=C(/C=C/c1ccc(O)c(O)c1)O[C@@H]1C[C@](O)(C(=O)O)C[C@@H](O)[C@H]1O [Chlorogenic acid]
[1]
  Strains whose growth was inhibited or diminished: 80%
  Strains whose growth was inhibited by an MIC <10 mg/ml: 40%

## C[C@@H]1O[C@@H](O[C@@H]2[C@@H](O)[C@H](OCCc3ccc(O)c(O)c3)O[C@H](CO)[C@H]2OC(=O)/C=C/c2ccc(O)c(O)c2)[C@H](O)[C@H](O)[C@H]1O [Verbascoside]
[2]
  IC50: 1.78 µM
[3]; series (1)
  IC50: 1.6 µM
[3]; series (2)
  IC50: 1.6 µM
[1]
  Strains whose growth was inhibited or diminished: 72%
  Strains whose growth was inhibited by an MIC <10 mg/ml: 44%

## O=C(/C=C/c1ccc(O)c(O)c1)O[C@H](Cc1ccc(O)c(O)c1)C(=O)O [Rosmarinic acid]
[1]
  Strains whose growth was inhibited or diminished: 100%
  Strains whose growth was inhibited by an MIC <10 mg/ml: 96%

## Cc1cc(C(C)(C)C)c(O)c(C(C)(C)C)c1 [BHT, reference compound]
[4]
  cytotoxicity (in words): high cytotoxicity
[5]
  inhibition at 100 µM: 64 ± 2%

## CC1OC(OC2C(OC(=O)C=Cc3ccc(O)c(O)c3)C(CO)OC3OCC(c4ccc(O)c(O)c4)OC32)C(O)C(O)C1O [Oraposide, 3-0-(α-L-rhamnopyranosyl)-[2-(3,4-dihydroxyphenyl)-1,2-ethylidene]-β-D-glucopyranoside 4-caffeate]
[2]
  IC50: 0.22 µM
[6]; 0.06 mg/ml
  inhibition at 60 µg/mL: 70%
[6]; 0.12 mg/ml
  inhibition at 120 µg/mL: 80%
[7]
  IC50: 0.16 µM
[8]; surface area of UVA peak, vs Parsol 1 789
  UVA absorption relative to Parsol 1 789: approximately 0.2 times
[8]; surface area of UVB peak, vs Parsol MCX
  UVB absorption activity relative to Parsol MCX: 0.4 times
[9]
  inhibition of all bacterial strains: 100%
[10]
  release of LDH by hepatocytes intoxicated with chloroform: a less clear effect
[11]
  cell toxicity: no cell toxicity
[12]
  abnormal movements (of the choreic type) and other secondary disturbances due to treatment with L-dopa: improvement
[4]
  cytotoxicity (in words): no cytotoxic effect
  % increase in OD with respect to the control (+DMSO), D1: 0%
  % increase in OD with respect to the control (+DMSO), D2: 0%
  % increase in OD with respect to the control (+DMSO), D3: 0%
[4]; up to 200 μM
  cytotoxic effect up to a concentration of 200 μM: no cytotoxic effect
[13]
  release of LDH by hepatocytes intoxicated with nitroxynil: very significantly reduces the release of LDH
[3]; series (1)
  IC50: 0.15 µM
[3]; series (2)
  IC50: 0.165 µM
[5]; 100 μM
  protective power / anti-free-radical activity (in words): equally effective as BHT, but less effective than α-tocopherol
[5]; 1st experiment
  inhibition at 100 µM: 70 ± 3%
[5]; 2nd experiment
  inhibition at 100 µM: 60 ± 15%
[14]; [16]
  inhibition of lipoperoxidation: 100%
  inhibition of lipoperoxidation (in words): stronger inhibition
[14]; free radical generator CCl4
  inhibition of lipid oxidation potentiated by CCl4: 100%
[14]; free radical generator H2 O2
  inhibition of lipid oxidation potentiated by H2O2: 90%
[14]; read-out: dose required to obtain 50% inhibition of lipoperoxidation, FIG. 4
  IC50: 10 µM
[1]
  Strains whose growth was inhibited or diminished: 92%
  Strains whose growth was inhibited by an MIC <10 mg/ml: 64%
[15]
  tremor caused by a tremor-inducing factor: reduce tremor

## O=C(O)/C=C/c1ccc(O)c(O)c1 [Caffeic acid, 3,4-dihydroxycinnamic acid]
[14]; [16]
  inhibition of lipoperoxidation (in words): equivalent inhibiting activity
[1]
  Strains whose growth was inhibited or diminished: 83%
  Strains whose growth was inhibited by an MIC <10 mg/ml: 52%

## C[C@@H]1OC(O[C@@H]2[C@@H](O)[C@H](OCCc3ccc(O)c(O)c3)O[C@H](CO[C@@H]3OC[C@@H](O)[C@H](O)[C@H]3O)[C@H]2OC(=O)/C=C/c2ccc(O)c(O)c2)[C@H](O)[C@H](O)[C@H]1O (stereo partly shown) [Arenarioside]
[2]
  IC50: 4.18 µM
[3]; series (1)
  IC50: 2.38 µM
[3]; series (2)
  IC50: 1.47 µM

## Cc1c(C)c2c(c(C)c1O)CCC(C)(CCCC(C)CCCC(C)CCCC(C)C)O2 (stereo not drawn) [α-tocopherol, reference compound]
[4]
  cytotoxicity (in words): less pronounced
  % increase in OD with respect to the control (+DMSO), D1: 19 ± 2%
  % increase in OD with respect to the control (+DMSO), D2: 83 ± 20%
  % increase in OD with respect to the control (+DMSO), D3: 54 ± 8%
[5]
  inhibition at 100 µM: 100%
[14]; [16]
  inhibition of lipoperoxidation (in words): equivalent inhibiting activity
